# Experimental data from ChEMBL document CHEMBL1158954, “Anti-AIDS agents, 3. Inhibitory effects of colchicine derivatives on HIV replication in H9 lymphocyte cells” (J Nat Prod, 1991).
# Experiments:
# H9 = assay: Cytotoxicity against human H9 cells; assay type: ADME, cell-based
# H9 (Homo sapiens) = assay: microbe, parasite or virus in culture; details: H9, 72 h
IC50 (H9 (Homo sapiens)) [nM],Compound,EC50 (H9) [nM]
270,COc1cc2c(c(OC)c1O)-c1ccc(O)c(=O)cc1[C@@H](NC(C)=O)CC2,270
1400,COc1cc2c(c(OC)c1O)-c1ccc(SC)c(=O)cc1[C@@H](N)CC2,1100
1600,COc1cc2c(c(OC)c1OC)-c1ccc(N(C)C)c(=O)cc1[C@@H](N)CC2,940
660,COc1cc2c(c(OC)c1OC)-c1ccc(=O)c(OC)cc1[C@@H](NC(=O)C(F)(F)F)CC2,660
1200,CC(=O)N[C@H]1CCc2cc(O)c(O)c(O)c2-c2ccc(O)c(=O)cc21,1200
6.6,COc1cc2c(c(OC)c1OC)-c1ccc(OC)c(=O)cc1[C@@H](NC(=O)C(F)(F)F)CC2,8.8
52,COc1cc2c(c(OC)c1O)-c1ccc(SC)c(=O)cc1[C@@H](NC(C)=O)CC2,47
260,COc1cc2c(c(OC)c1O)-c1ccc(OC)c(=O)cc1[C@@H](NC(C)=O)CC2 [2-DESMETHYLCOLCHICIN],260
40,COc1cc(C(=O)N[C@H]2CCc3cc(OC)c(OC)c(OC)c3-c3ccc(OC)c(=O)cc32)cc(OC)c1OC,20
> 2700,COc1cc2c(c(OC)c1OC)-c1ccc(=O)c(N(C)C)cc1[C@@H](N)CC2,> 2700
180,COc1cc(/C=C/C(=O)N[C@H]2CCc3cc(OC)c(OC)c(OC)c3-c3ccc(OC)c(=O)cc32)cc(OC)c1O,180
200,COc1cc2c(c(OC)c1OC)-c1ccc(O)c(=O)cc1[C@@H](NC(=O)C(F)(F)F)CC2,570
290,COc1cc2c(c(OC)c1OC)-c1ccc(OC)c(=O)cc1[C@@H](NC(=O)/C=C/c1ccc(O)c(O)c1)CC2,290
5.5,COc1cc(/C=C/C(=O)N[C@H]2CCc3cc(OC)c(OC)c(OC)c3-c3ccc(OC)c(=O)cc32)cc(OC)c1OC,5.5
,COc1cc(C(=O)N[C@H]2CCc3cc(OC)c(OC)c(OC)c3-c3ccc(OC(=O)c4cc(OC)c(OC)c(OC)c4)c(=O)cc32)cc(OC)c1OC,1400
85,COc1cc2c(c(OC)c1OC)-c1ccc(N(C)C)c(=O)cc1[C@@H](NC(C)=O)CC2,85
2800,COc1cc2c(c(OC)c1OC)-c1ccc(=O)c(OC)cc1[C@@H](N)CC2,2800

Compound,IC50 (H9 (Homo sapiens)) [nM],EC50 (H9) [nM]
N[C@H]1CCc2cc(O)c(O)c(O)c2-c2ccc(=O)c(O)cc21,50000,30000
COc1cc2c(c(OC)c1OC)-c1ccc(OC)c(=O)cc1[C@@H](NC(C)=O)CC2 [COLCHICINE],18,10
O=C(N[C@H]1CCc2cc(O)c(O)c(O)c2-c2ccc(=O)c(O)cc21)C(F)(F)F,23000,23000
COc1cc2c(c(OC)c1OC)-c1ccc(O)c(=O)cc1[C@@H](N)CC2,1200,1300
